Read-outs that look alike come from different tables or passages of the source.
Test system: human C-Myc transcription in MV-4-11 cells
Test: Transcription of human C-Myc in human leukemic MV-4-11 cells (QuantiGene 2.0)
Assay type: cell-based
Settings: inhibition of C-Myc mRNA, 4 hours treatment, read-out: IC50 MV-4-11 Cell
Method: The effect of compounds on transcription of human C-Myc gene is monitored in human B-myelomonocytic leukemia cell line MV-4-11 (from American Type Culture Collection (ATCC), Manassas, Va., USA) using QuantiGene 2.0 assay kit (Affymetrix, Santa Clara, Calif., USA).
Typically, 8,000 MV-4-11 cells are plated in sterile 96-well plates (Costar #3598 from Fisher Scientific Canada, Ottawa, Ontario, Canada) in Iscove's medium supplemented with 10% fetal bovine serum, glutamine (2 mM), and penicillin (100 I.U.) and streptomycin (100 μg/mL) (all from Wisent Inc., St. Bruno, Quebec, Canada). Compounds are dissolved in DMSO at 30 mM. A series of 1:3 dilutions are first made in DMSO, and further 1:100 dilutions are made in serum-containing cell culture media. The final concentration of DMSO is 0.1% in cell culture media. After cells are treated with various concentrations of test compound for 4 hours, cells are lysed using Quantigene 2.0 sample processing kit (# QS0100). C-Myc mRNA is detected using a QuantiGene 2.0 assay kit (# QS0009) with gene-specific probe to human C-Myc (# SA-50182) following the manufacturer's recommendations. Luminescene signals are read on Flexstation II microplate reader (Molecular Devices, Sunnyvale, Calif., USA).

SMILES	IC50	IC50 (Homo sapiens, MV4-11, 4 h)
Cc1cc(-c2ccc3nc(CC4CCOCC4)n(CCOC(F)(F)F)c3c2)cn(C)c1=O [Compound 43, 1,3-dimethyl-5-(2-((tetrahydro-2H-pyran-4-yl)methyl)-1-(2-(trifluoromethoxy)ethyl)-1H-benzo[d]imidazol-6-yl)pyridin-2(1H)-one]	–	27 nM
COC(C)Cn1c(C)nc2ccc(-c3cc(C)c(=O)n(C)c3)cc21 (stereo not drawn) [Compound 21a, 5-[3-(2-methoxypropyl)-2-methylbenzimidazol-5-yl]-1,3-dimethylpyridin-2-one]	–	510 nM
COCCn1c(CC2CCOCC2)nc2ccc(-c3cc(C)c(=O)n(C)c3)cc21 [Compound 42, 5-(1-(2-methoxyethyl)-2-((tetrahydro-2H-pyran-4-yl)methyl)-1H-benzo[d]imidazol-6-yl)-1,3-dimethylpyridin-2(1H)-one]	–	170 nM
Cn1cc(-c2ccc3nc(C4CCOCC4)n(CCOC(F)(F)F)c3c2)cc(Cl)c1=O [Compound 36, 3-chloro-1-methyl-5-[2-tetrahydropyran-4-yl-3-[2-(trifluoromethoxy)ethyl]benzimidazol-5-yl]pyridin-2-one]	–	53 nM
Cc1cc(-c2ccc3nc(C4CCOCC4)n(CCC(F)(F)F)c3c2)cn(C)c1=O [Compound 34, 1,3-dimethyl-5-[2-tetrahydropyran-4-yl-3-(3,3,3-trifluoropropyl)benzimidazol-5-yl]pyridin-2-one]	–	220 nM
CCOC[C@@H](C)n1c(C2CC(F)(F)C2)nc2ccc(-c3cc(C)c(=O)n(C)c3)cc21 [Compound 52, (R)-5-(2-(3,3-difluorocyclobutyl)-1-(1-ethoxypropan-2-yl)-1H-benzo[d]imidazol-6-yl)-1,3-dimethylpyridin-2(1H)-one]	–	51 nM
Cc1cc(-c2ccc3nc(C4CCOCC4)n([C@H](C)COC(C)C)c3c2)cn(C)c1=O [Compound 66, (R)-5-(1-(1-isopropoxypropan-2-yl)-2-(tetrahydro-2H-pyran-4-yl)-1H-benzo[d]imidazol-6-yl)-1,3-dimethylpyridin-2(1H)-one]	–	18 nM
Cn1cc(-c2ccc3nc(C4CC4)n(CCOC(F)(F)F)c3c2)cc(C2CC2)c1=O [Compound 19, 3-cyclopropyl-5-[2-cyclopropyl-3-[2-(trifluoromethoxy)ethyl]benzimidazol-5-yl]-1-methylpyridin-2-one]	–	870 nM
CCO[C@@H](C)Cn1c(C2CC(F)(F)C2)nc2ccc(-c3cc(C)c(=O)n(C)c3)cc21 [Compound 53, (S)-5-(2-(3,3-difluorocyclobutyl)-1-(2-ethoxypropyl)-1H-benzo[d]imidazol-6-yl)-1,3-dimethylpyridin-2(1H)-one]	–	76 nM
CCOCCn1c(C2CCC(F)(F)CC2)nc2ccc(-c3cc(C)c(=O)n(C)c3)cc21 [Compound 61, 5-(2-(4,4-difluorocyclohexyl)-1-(2-ethoxyethyl)-1H-benzo[d]imidazol-6-yl)-1,3-dimethylpyridin-2(1H)-one]	–	84 nM
COC1CC(c2nc3ccc(-c4cc(C)c(=O)n(C)c4)cc3n2CCOCC(F)(F)F)C1 (stereo not drawn) [Compound 62, 5-[2-(3-methoxycyclobutyl)-1-(2-(2,2,2-trifluoroethoxy)ethyl)-1H-benzo[d]imidazol-6-yl]-1,3-dimethylpyridin-2(1H)-one]	–	21 nM
CNc1cc(-c2ccc3nc(C4CC4)n(CCOC(F)(F)F)c3c2)cn(C)c1=O [Compound 20, 5-[2-cyclopropyl-3-[2-(trifluoromethoxy)ethyl]benzimidazol-5-yl]-1-methyl-3-(methylamino)pyridin-2-one]	–	240 nM
CCO[C@H](C)Cn1c(C2CCOCC2)nc2ccc(-c3cc(C)c(=O)n(C)c3)cc21 [Compound 39, (R)-5-(1-(2-ethoxypropyl)-2-(tetrahydro-2H-pyran-4-yl)-1H-benzo[d]imidazol-6-yl)-1,3-dimethylpyridin-2(1H)-one]	–	84 nM
COC1CC(c2nc3ccc(-c4cc(C)c(=O)n(C)c4)cc3n2CCOC(C)C)C1 (stereo not drawn) [Compound 64, 5-[1-(2-isopropoxyethyl)-2-(3-methoxycyclobutyl)-1H-benzo[d]imidazol-6-yl]-1,3-dimethylpyridin-2(1H)-one]	51 nM	–
COC[C@@H](C)n1c(CC2CCOCC2)nc2ccc(-c3cc(C)c(=O)n(C)c3)cc21 [Compound 50, (R)-5-(1-(1-methoxypropan-2-yl)-2-((tetrahydro-2H-pyran-4-yl)methyl)-1H-benzo[d]imidazol-6-yl)-1,3-dimethylpyridin-2(1H)-one]	–	160 nM
CCc1cc(-c2ccc3nc(C4CC4)n(CCOC(F)(F)F)c3c2)cn(C)c1=O [Compound 14, 5-(2 cyclopropyl-3-(2-(trifluoromethoxy)ethyl)benzimidazol-5-yl)-3-ethyl-1-methylpyridin-2-one]	–	250 nM
COC[C@@H](C)n1c(C2CC(F)(F)C2)nc2ccc(-c3cc(C)c(=O)n(C)c3)cc21 [Compound 51, (R)-5-(2-(3,3-difluorocyclobutyl)-1-(1-methoxypropan-2-yl)-1H-benzo[d]imidazol-6-yl)-1,3-dimethylpyridin-2(1H)-one]	–	62 nM
Cc1cc(-c2ccc3nc(C4(C)CCOCC4)n(CCOC(F)(F)F)c3c2)cn(C)c1=O [Compound 31, 1,3-dimethyl-5-(2-(4-methyltetrahydro-2H-pyran-4-yl)-1-(2-(trifluoromethoxy)ethyl)-1H-benzo[d]imidazol-6-yl)pyridin-2(1H)-one]	–	24 nM
CCOCCn1c(C2CCOCC2)nc2ccc(-c3cc(C)c(=O)n(C)c3)cc21 [Compound 60, 5-(1-(2-ethoxyethyl)-2-(tetrahydro-2H-pyran-4-yl)-1H-benzo[d]imidazol-6-yl)-1,3-dimethylpyridin-2(1H)-one]	–	17 nM
Cc1cc(-c2ccc3nc(C4CC4)n(CCOCC(F)(F)F)c3c2)cn(C)c1=O [Compound 45, 5-(2-cyclopropyl-1-(2-(2,2,2-trifluoroethoxy)ethyl)-1H-benzo[d]imidazol-6-yl)-1,3-dimethylpyridin-2(1H)-one]	–	160 nM
Cc1cc(-c2ccc3nc(C4CCOCC4)n(C[C@H](C)OC(C)C)c3c2)cn(C)c1=O [Compound 67, (S)-5-(1-(2-isopropoxypropyl)-2-(tetrahydro-2H-pyran-4-yl)-1H-benzo[d]imidazol-6-yl)-1,3-dimethylpyridin-2(1H)-one]	–	26 nM
CCO[C@H](C)Cn1c(C2CC(F)(F)C2)nc2ccc(-c3cc(C)c(=O)n(C)c3)cc21 [Compound 54, (R)-5-(2-(3,3-difluorocyclobutyl)-1-(2-ethoxypropyl)-1H-benzo[d]imidazol-6-yl)-1,3-dimethylpyridin-2(1H)-one]	–	170 nM

More lines, now with the values ahead:

IC50	IC50 (Homo sapiens, MV4-11, 4 h)	SMILES
250 nM	–	COC(C)Cn1c(C2CC2)nc2ccc(-c3cc(C)c(=O)n(C)c3)cc21 (single isomer, unassigned) [Compound 23a, 5-[2-cyclopropyl-3-(2-methoxypropyl)benzimidazol-5-yl]-1,3-dimethylpyridin-2-one]
86 nM	–	COC(C)Cn1c(C2CCOCC2)nc2ccc(-c3cc(C)c(=O)n(C)c3)cc21 (single isomer, unassigned) [Compound 35b, 5-[3-(2-methoxypropyl)-2-tetrahydropyran-4-yl-benzimidazol-5-yl]-1,3-dimethyl pyridin-2-one]
–	200 nM	Cc1cc(-c2ccc3nc([C@H]4CCCO4)n(CCOC(F)(F)F)c3c2)cn(C)c1=O (stereo in doubt) [Compound 30a, 1,3-dimethyl-5-[2-tetrahydrofuran-2-yl-3-[2-(trifluoromethoxy)ethyl]benzimidazol-5-yl]pyridin-2-one]
780 nM	–	COC(C)Cn1cnc2ccc(-c3cc(C)c(=O)n(C)c3)cc21 (stereo not drawn) [Compound 22b, 5-[3-(2-methoxypropyl)benzimidazol-5-yl]-1,3-dimethylpyridin-2-one]
77 nM	–	Cc1cc(-c2ccc3nc(C4CCOC4)n(CCOC(F)(F)F)c3c2)cn(C)c1=O (single isomer, unassigned) [Compound 29b, 1,3-dimethyl-5-[2-tetrahydrofuran-3-yl-3-[2-(trifluoromethoxy)ethyl]benzimidazol-5-yl]pyridin-2-one]
250 nM	–	Cc1cc(-c2ccc3nc(C4CCOCC4)n(CC(C)C(F)(F)F)c3c2)cn(C)c1=O (stereo not drawn) [Compound 46b, 1,3-dimethyl-5-(2-(tetrahydro-2H-pyran-4-yl)-1-(3,3,3-trifluoro-2-methylpropyl)-1H-benzo[d]imidazol-6-yl)pyridin-2(1H)-one]
220 nM	–	Cc1cc(-c2ccc3nc(C4CCOC4)n(CCOC(F)(F)F)c3c2)cn(C)c1=O (single isomer, unassigned) [Compound 29a, 1,3-dimethyl-5-[2-tetrahydrofuran-3-yl-3-[2-(trifluoromethoxy)ethyl]benzimidazol-5-yl]pyridin-2-one]
–	50 nM	CO[C@H]1C[C@H](c2nc3ccc(-c4cc(C)c(=O)n(C)c4)cc3n2CCOC(F)(F)F)C1 [Compound 28a]
